# Test results reported in US4542027A, “Laidlomycin phenylcarbamate” (Syntex (U.S.A.) Inc., priority 1984, dated 1985).
# Read-outs that look alike come from different tables or passages of the source.
# Key:
# [1] = Stability at 60° C. in methanol-water, acetate buffer; format: physicochemical; conditions: methanol-water, acetate buffer
# Description: Laidlomycin phenylcarbamate, laidlomycin isopopylcarbamate and two laidlomycin esters were prepared and their relative stability at 60° C. methanol-water, acetate buffer was determined. A complete list of the esters and carbamates which were tested under these conditions follows: […]
# Gram positive bacteria = conditions: Journal of Antibiotics 1974, 1976; cited from earlier work
# rumen fluid [2] = assay: L(+)-Lactic acid production in in vitro rumen fluid fermentation; format: cell-based, steer; parameters: Lactic acid production rate: unit not given here; conditions: 5.5 h
# Description: (§1) Two separate fermentation models were used to evaluate effects of laidlomycin and laidlomycin phenylcarbamate upon volatile fatty acids (VFA) and lactic acid production. Test compounds were solubilized in absolute ethanol at concentrations of 1 mg/ml and were serially diluted twofold in absolute ethanol through six additional concentrations. Aliquots of 200 μl were transferred to 18×150 mm test tubes, which were used as incubation vessels, and the ethanol was evaporated.
# (§2) For both fermentation models rumen fluid from a rumen-fistulated steer, consuming a 100% alfalfa hay diet, was obtained before the morning feeding. The fluid was strained through four layers of cheesecloth, mixed with an equal volume of CO2 -saturated buffer, and 10 ml was transferred to each of the incubation vessels. All tubes were fitted with gas-release stoppers under an atmosphere of CO2 and were incubated in a shaking waterbath at 39° C. […] This medium, designed to be microbiologically nonselective, encouraged VFA production with no accumulation of lactic acid. Buffer used to study lactic acid accumulation (table 1) contained 150 mmol of glucose/liter and had little buffering capacity. This medium favored growth of lactic acid-producing bacteria and allowed rapid production of lactic acid coupled with a precipitous drop in pH from pH 6.2 to less than pH 5 during the course of an incubation.
# (§3) Fermentation was terminated at 9 h for the VFA fermentations and at 5.5 h for the lactic acid fermentations by addition of 2 ml of 25% metaphosphoric acid to the incubation tubes. Aliquots were frozen overnight, thawed, centrifuged at 30,000 × g for 10 min and the resulting supernatants analyzed for either L(+)-lactic acid or VFA. The L(+)-lactic acid was analyzed via a specific enzymatic assay in which the concentration of lactic acid in the fermentation broth was quantified by the increase in absorbance of light at 340 nm when nicotinamide adenine dinucleotide was reduced by lactic acid with the aid of L(+)-lactic dehydrogenase. VFA were analyzed via gas chromatography using a Varian chromatograph equipped with a flame ionization detector. Acids were separated on a glass column (0.64×182.9 cm) packed with 10% SP-1200/1% H3 PO4 on Chromosorb-WAW®, 80-100 mesh. This column was obtained pre-packed from Supelco, Inc., Bellefont, Pennsylvania. Chromatographic conditions included a column temperature of 145° C., an injector temperature of 190° C., a detector temperature of 190° C., a carrier gas flow of 45 ml/min and an injection volume of 1 μl.
# (§4) Net production rates of all acids were calculated by subtracting the concentration of acids in the incubation fluid before incubation from the concentration determined in each tube after incubation. Molar proportions of acetic, propionic, and butyric acids produced were calculated by dividing the production rate of individual acids by the sum of the production rates of the three acids. Data were analyzed by analysis of variance (SAS, 1979). Comparisons (Duncan's multiple range test) of individual means were made when treatment effects (P<0.05) were indicated.
# rumen fluid [3] = assay: Propionic acid production (VFA) in in vitro rumen fluid fermentation; format: cell-based, steer; parameters: Propionic acid production rate: unit not given here; conditions: 9 h
# Description: as §1, §2, §3, §4
# [4] = Stability in soybean millrun feed premix at 60° C.; format: physicochemical; conditions: soybean millrun feed premix; 60° C., one week, soybean millrun premix, 10% (w/w)
# Description: These materials were then stored at 60° C. and analyzed for starting material at one week. The premix composition is given in Table 5 and the stability data in Table 6.
# [5] = U.S. Pat. No. 3,794,732; cited from earlier work
molecule,measurement,setting,value
laidlomycin isopopylcarbamate [isopropylcarbamate],t1/2,[1]; 60° C.,501.8 h
"CCC(=O)OC(C(C)C(=O)O)C(C)C1OC2(CCC(C)(C3CCC(C)(C4OC(C5OC(O)(CO)C(C)CC5C)CC4C)O3)O2)CC(O)C1C (stereo not shown) [Laidlomycin, laidlomycin]",Growth inhibition of Gram positive bacteria,Gram positive bacteria,inhibits the growth of Gram positive bacteria
same,Lactic acid production rate,rumen fluid [2]; 0.31 μg/ml,28.3
same,activity at 0.31 µg/mL,"rumen fluid [2]; 0.31 μg/ml, read-out: Lactic acid production, percentage of control",101%
same,Lactic acid production rate,rumen fluid [2]; 0.62 μg/ml,30.7
same,activity at 0.62 µg/mL,"rumen fluid [2]; 0.62 μg/ml, read-out: Lactic acid production, percentage of control",110%
same,Lactic acid production rate,rumen fluid [2]; 1.25 μg/ml,26.4
same,activity at 1.25 µg/mL,"rumen fluid [2]; 1.25 μg/ml, read-out: Lactic acid production, percentage of control",94%
same,Lactic acid production rate,rumen fluid [2]; 2.50 μg/ml,32.0
same,activity at 2.5 µg/mL,"rumen fluid [2]; 2.50 μg/ml, read-out: Lactic acid production, percentage of control",115%
same,Lactic acid production rate,rumen fluid [2]; 5.00 μg/ml,26.5
same,activity at 5 µg/mL,"rumen fluid [2]; 5.00 μg/ml, read-out: Lactic acid production, percentage of control",95%
same,Lactic acid production rate,rumen fluid [2]; 10.00 μg/ml,21.6
same,activity at 10 µg/mL,"rumen fluid [2]; 10.00 μg/ml, read-out: Lactic acid production, percentage of control",77%
same,Lactic acid production rate,rumen fluid [2]; 20.00 μg/ml,22.7
same,"Lactic acid production, percentage of control",rumen fluid [2]; 20.00 μg/ml,81 % of control
same,activity at 20 µg/mL,"rumen fluid [2]; 20.00 μg/ml, read-out: Lactic acid production, percentage of control",81%
same,Propionic acid production rate,rumen fluid [3]; 0.31 μg/ml,21.1
same,Propionic acid production rate,rumen fluid [3]; 1.25 μg/ml,20.9
same,Propionic acid production rate,rumen fluid [3]; 2.50 μg/ml,21.8
same,Propionic acid production rate,rumen fluid [3]; 5.00 μg/ml,22.2
same,Propionic acid production rate,rumen fluid [3]; 10.00 μg/ml,23.1
same,"Propionic acid production, percentage of control",rumen fluid [3]; 10.00 μg/ml,108 % of control
same,Propionic acid production rate,rumen fluid [3]; 20.00 μg/ml,23.2
same,"Propionic acid production, percentage of control",rumen fluid [3]; 20.00 μg/ml,109 % of control
same,activity at 0.31 µg/mL,"rumen fluid [3]; 0.31 μg/ml, read-out: Propionic acid production, percentage of control",99%
same,activity at 1.25 µg/mL,"rumen fluid [3]; 1.25 μg/ml, read-out: Propionic acid production, percentage of control",98%
same,activity at 2.5 µg/mL,"rumen fluid [3]; 2.50 μg/ml, read-out: Propionic acid production, percentage of control",102%
same,activity at 5 µg/mL,"rumen fluid [3]; 5.00 μg/ml, read-out: Propionic acid production, percentage of control",104%
same,activity at 10 µg/mL,"rumen fluid [3]; 10.00 μg/ml, read-out: Propionic acid production, percentage of control",108%
same,activity at 20 µg/mL,"rumen fluid [3]; 20.00 μg/ml, read-out: Propionic acid production, percentage of control",109%
same,activity at 0.62 µg/mL,"rumen fluid [3]; read-out: Propionic acid production, percentage of control, 0.62 μg/ml, 9 h",98%
"CCC(=O)OC(C(C)C(=O)O)C(C)C1OC2(CCC(C)(C3CCC(C)(C4OC(C5OC(O)(COC(=O)C(C)C)C(C)CC5C)CC4C)O3)O2)CC(O)C1C (stereo not shown) [Laidlomycin isobutyrate, reference compound]",remaining at 168 h,[4],70%
CC[C@@]1([C@@H]2O[C@@H]([C@H]3O[C@@](O)(CO)[C@H](C)C[C@@H]3C)C[C@@H]2C)CC[C@H]([C@]2(C)CC[C@]3(C[C@H](O)[C@@H](C)[C@@H]([C@@H](C)[C@@H](OC)[C@H](C)C(=O)O)O3)O2)O1 [Monensin],Increasing feed utilization in ruminants,[5],useful in increasing feed utilization in ruminants
CCCC(=O)O [butyrate],half-life,[1],22.3 h
"CCC(=O)OCC1(O)OC(C2CC(C)C(C3(C)CCC(C4(C)CCC5(CC(O)C(C)C(C(C)C(OC(=O)CC)C(C)C(=O)O)O5)O4)O3)O2)C(C)CC1C (stereo not shown) [Laidlomycin propionate, reference compound]",half-life,"[1]; 60° C., read-out: t1/2 (converted)",11.1 h
same,remaining at 168 h,[4],59%
